Assay results as given in US7417039B2, “Use of substituted azetidinone compounds for the treatment of sitosterolemia” (Schering Corporation, priority 2001, dated 2008).

What was measured:
Sitosterol Absorption = assay: In vivo evaluation in mice: [3H]-sitosterol absorption and hepatic accumulation
Method: In vivo activity of compound VIII in mice was determined by the following procedure:
Male ApoE knockout mice, age 6 wks, were received from Jackson Laboratory along with age-matched C57BL/J. The mice were housed 5 per cage, normal light cycle, normal diet. Twenty-six mice of each variety were weighed and housed, 1 per cage, in suspended wire cages with normal light cycle, normal diet. After three days, the mice were reweighed. Based on body weight, the mice were divided into 5 groups for each type of treatment:
Control (corn oil) and Compositions including Compound VIII at 0.3, 1, 3, and 10 mg/kg of body weight per day.
Preparation of Compositions including Compound VIII based on 22 g average mouse body weight:
The mice were gavaged using a feeding needle 30 min before receiving ^14C-cholesterol (NEN, NEC 018) and ^3H-sitosterol (NEN, CUS 030T). The radioactive dose was prepared from: • 114 μL ^3H-sitosterol stock (1 μCi/μL in ethanol); • 1.425 mL ^14C-cholesterol stock (40 μCi/mL in ethanol); • 5.7 mg cholesterol, Sigma C 8667; • 5.7 mg β-sitosterol, Sigma, S 1270; • The ethanol was removed under N2; • 5.7 ml of corn oil was added, and the mixture was warmed to 60° C.; and shaken for 1 hr.
Each 0.1 ml dose contained 2 μCi ^3H-sitosterol, 0.1 mg cold (non radioactive) sitosterol; 1 μCi ^14C-cholesterol, and 0.1 mg cold (non radioactive) cholesterol. Radioactive content was verified: 5×10 μl counted in Beckman LSC (liquid […] counter). Tritiated sitosterol was used as an “unabsorbable” marker to compare to the absorption of [^14C]-cholesterol in a mouse fecal isotope ratio cholesterol absorption model.
On the 4th, 5th, and 6th days, feces were collected and stored at −20° C. in vials just before dosing with Control or Compound VIII late in the day. Termination of the experiment on the 7th day involved sacrifice by exsanguination, removal and weighing of the liver. 3×˜250 mg samples of liver were put in vials. The liver samples were digested with 1 ml of 1N NaOH at 60° overnight, neutralized with 0.1 ml 12N HCl and counted for ^14C and ^3H. The blood samples were allowed to clot at room temp for 1 hr, then centrifuged at 1000 G for 15 min. The serum was analyzed for total cholesterol (see Wako C I I; see Allain C C, Poon L S, Chan C S G, Richmond W, Fu P C. Enzymatic Determination of Total Serum Cholesterol. Clin. Chem. 1974; 20:470-475, which is incorporated by reference herein) and radioactivity (2×50 μL). Fecal samples were analyzed for radioactivity by combustion in a Packard Oxidizer followed by Beckman LSC.

[1] = system: plasma plant sterols (sitosterol and campesterol) and LDL-C; assay: In vivo evaluation in humans: randomized, double-blind, placebo-controlled 8-week trial in homozygous sitosterolemia; set-up: species or system human; conditions: homozygous sitosterolemia patients, 8 weeks
Method: In a randomized multicenter, double-blind, placebo-controlled, 8-week trial, 37 human patients previously diagnosed with homozygous sitosterolemia were randomized to receive Compound VIII (n=30) or placebo (n=7): • Treatment A—Compound VIII given orally as 1 dose (10 mg) per day, • Treatment B—Placebo (matching image of Compound VIII 10 mg) given orally as 1 dose per day, every morning for 8 consecutive weeks.
During the trial, subjects were instructed to maintain (as a minimum) a National Cholesterol Education Program (NCEP) Step 1 diet
Patients were instructed to maintain a diary of food intake and monitored prior to randomization, at baseline and during therapy. Results of the central diet analysis for each subject were reported as a RISCC score (Ratio of Ingested Saturated fat and Cholesterol to Calories) and as dietary components. RISCC scores indicate the potential for a diet to influence plasma lipid levels. A score ranging from 14 to 20 correlates with a NCEP step 1 diet.
Low-Density-Lipoprotein-Cholesterol (LDL-C) results were reported as direct LDL-C (plasma concentration was determined following a standard ultra centrifugation/precipitation procedure; lipid and lipoprotein analysis, see Manual of Laboratory Operations: Lipid Research Clinics Program Report. Washington, D.C.: US Department of Health, Education, and Welfare publication; 1974. NIH 75-628, vol 1, which is incorporated by reference herein or beta-quantification) and calculated LDL-C (plasma concentration; based on Freidewald equation: LDL-C=Total cholesterol minus (Triglycerides divided by 5) minus High-density-lipoprotein cholesterol (HDL-C)).
Total cholesterol and Triglycerides were determined enzymatically using a Hitachi 747 analyzer; see, Steiner P M, Freidel J, Bremner W F, Stein E A: Standardization of micromethods for plasma cholesterol, triglyceride and HDL-cholesterol with the Lipid Clinics' methodology [abstract]. J Clin Chem Clin Biochem 1981;19:850, which is incorporated by reference herein.
HDL-C was determined enzymatically after heparin and magnesium precipitation; see, Steele W B, Koehle D F, Azar M M, Blaszkowski T P, Kuba K, Dempsey M E: Enzymatic determinations of cholesterol in high density lipoprotein fractions prepared by precipitation technique. Clin Chem 1976;22:98-101, which is incorporated by reference herein.
Plasma plant sterols (sitosterol and campesterol) and LDL-C were assessed at baseline (Day 1) and at endpoint (average of Weeks 6 and 8 values). See: Salen, Gerald; Shore, Virgie; Tint, G S; Forte, T: Shefer, S; Horak, I; Horak, E; Dayal, B; Nguyen, L.; Batta, A K; Lindgren, F T; Kwiterovich, Jr, P O, “Increased sitosterol absorption, decreased removal and expanded body pools compensate for reduced cholesterol synthesis in sitosterolemia with xanthomatosis”, J Lipid Res, Vol. 30, pp 1319-30, (1989) and Lutjohann, D; Bjorkhem, I; Beil, U F, and von Bergmann, K, “Sterol absorption and sterol balance in phytosterolemia evaluated by deuterium-labeled sterols: effect of sitostanol treatment” J Lipid Res. Vol. 36:(8), pp 1763-73, (1995), each of which is incorporated by reference herein.

[2] = 10 mg orally once daily, endpoint = average of Weeks 6 and 8

## O=C1[C@H](CC[C@H](O)c2ccc(F)cc2)[C@@H](c2ccc(O)cc2)N1c1ccc(F)cc1 [Compound VIII, ezetimibe]
Sitosterol Absorption; ApoE KO mice, 0.3 mg/kg/day by gavage in corn oil
  % of administered dose absorbed of [^3H]-sitosterol in liver (total animal liver), average: 0.1863%
Sitosterol Absorption; ApoE KO mice, 1 mg/kg/day by gavage in corn oil
  % of administered dose absorbed of [^3H]-sitosterol in liver (total animal liver), average: 0.1019%
Sitosterol Absorption; ApoE KO mice, 3 mg/kg/day by gavage in corn oil
  % of administered dose absorbed of [^3H]-sitosterol in liver (total animal liver), average: 0.0772%
Sitosterol Absorption; ApoE KO mice, 10 mg/kg/day by gavage in corn oil
  % of administered dose absorbed of [^3H]-sitosterol in liver (total animal liver), average: 0.0780%
Sitosterol Absorption; C57BL/6J and Apo E KO mice, 0.3-10 mg/kg/day
  absorption and hepatic accumulation of sitosterol: dose dependently inhibit
Sitosterol Absorption; C57BL/6J mice, 0.3 mg/kg/day by gavage in corn oil
  % of administered dose absorbed of [^3H]-sitosterol in liver (total animal liver), average: 0.1093%
Sitosterol Absorption; C57BL/6J mice, 1 mg/kg/day by gavage in corn oil
  % of administered dose absorbed of [^3H]-sitosterol in liver (total animal liver), average: 0.0588%
Sitosterol Absorption; C57BL/6J mice, 3 mg/kg/day by gavage in corn oil
  % of administered dose absorbed of [^3H]-sitosterol in liver (total animal liver), average: 0.0489%
Sitosterol Absorption; C57BL/6J mice, 10 mg/kg/day by gavage in corn oil
  % of administered dose absorbed of [^3H]-sitosterol in liver (total animal liver), average: 0.0552%
[1]; [2]
  mean (S.E.) percent change from Baseline at endpoint in plasma Campesterol: −24.3% (2.9%)
  mean (S.E.) percent change from Baseline at endpoint in plasma Sitosterol: −21.0% (2.8%)
  percent change from Baseline at endpoint in LDL-C (mean, 95% CI): −13.6% (−21.7%, −5.5%)
[1]; 10 mg per day
  reduction in campesterol compared to placebo: significant (p<0.001) reduction
  reduction in sitosterol compared to placebo: significant (p<0.001) reduction
  tolerability: well tolerated
